System: IgE antibodies from patients
Assay: Epitope mapping (2) overlapping (10-amino-acid peptides) and (3) alanine scanning on peptide arrays
Assay type: binding, human
Conditions: for binding to IgE antibodies from patients, sequence comprising a region carboxy-terminally adjacent to the epitope / binding to IgE antibodies from patients, sequence comprising a region amino-terminally adjacent to the epitope: overlapping peptides with flanking sequence; for region within the epitope important for binding to IgE antibodies from patients: procedures (B) overlapping and (C) alanine scanning
Outline: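 Overlapping 10-mer peptides shifted by one residue, and alanine-substituted peptides, spotted on cellulose and probed with patient and non-egg-allergic sera; IgE binding read by anti-human IgE-HRP chemiluminescence. Signal expressed relative to parent sequence and graded in bands from <20% (no binding) to ≥90% (retained binding).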

Substance | region within the epitope important for binding to IgE antibodies from patients | further results
SEQ ID NO: 557: sequence comprising a region carboxy-terminally adjacent to epitope 33 (AENLNQFIET; epitope) |  | binding to IgE antibodies from patients, sequence comprising a region carboxy-terminally adjacent to the epitope: binding to IgE antibodies from patients
SEQ ID NO: 503: sequence comprising a region amino-terminally adjacent to epitope 21 (GFALAAPGHG; epitope) |  | binding to IgE antibodies from patients, sequence comprising a region amino-terminally adjacent to the epitope: binding to IgE antibodies from patients
SEQ ID NO: 571: region in epitope 34 (KDEPLNV; epitope) | important for binding | 
SEQ ID NO: 672: sequence comprising a region amino-terminally adjacent to epitope 47 (MSFKPVYSDV; epitope) |  | binding to IgE antibodies from patients, sequence comprising a region amino-terminally adjacent to the epitope: binding to IgE antibodies from patients
SEQ ID NO: 542: sequence comprising a region carboxy-terminally adjacent to epitope 27 (YDAEKKRE; epitope) |  | binding to IgE antibodies from patients, sequence comprising a region carboxy-terminally adjacent to the epitope: binding to IgE antibodies from patients
SEQ ID NO: 339: region in epitope 4 (ALKKIAWKDP; epitope) | important for binding | 
SEQ ID NO: 602: region in epitope 37 (TPGAKVAV; epitope) | important for binding | 
SEQ ID NO: 562: region in epitope 34 (DEPLNV; epitope) | important for binding | 
SEQ ID NO: 492: sequence comprising a region amino-terminally adjacent to epitope 21 (LAAPGHG; epitope) |  | binding to IgE antibodies from patients, sequence comprising a region amino-terminally adjacent to the epitope: binding to IgE antibodies from patients
SEQ ID NO: 401: sequence comprising a region carboxy-terminally adjacent to epitope 8 (LPTETPLVS; epitope) |  | binding to IgE antibodies from patients, sequence comprising a region carboxy-terminally adjacent to the epitope: binding to IgE antibodies from patients
SEQ ID NO: 379: region in epitope 8 (KALQGWKELP; epitope) | important for binding | 
SEQ ID NO: 528: region in epitope 26 (GLLIS; epitope) | important for binding | 
SEQ ID NO: 482: region in epitope 20 (ATNLKAINI; epitope) | important for binding | 
SEQ ID NO: 392: region in epitope 8 (GWKELPTETP; epitope) | important for binding | 
SEQ ID NO: 609: sequence comprising a region carboxy-terminally adjacent to epitope 38 (LQMSSSV; epitope) |  | binding to IgE antibodies from patients, sequence comprising a region carboxy-terminally adjacent to the epitope: binding to IgE antibodies from patients
SEQ ID NO: 627: region in epitope 41 (SGYLKMFG; epitope) | important for binding | 
SEQ ID NO: 623: sequence comprising a region amino-terminally adjacent to epitope 40 (GRYLHLAAVN; epitope) |  | binding to IgE antibodies from patients, sequence comprising a region amino-terminally adjacent to the epitope: binding to IgE antibodies from patients
SEQ ID NO: 350: region in epitope 4 (AWKDPKTV; epitope) | important for binding | 
SEQ ID NO: 331: region in epitope 3 (KMKLALKCIG; epitope) | important for binding | 
SEQ ID NO: 425: region in epitope 11 (DVKLKNLKI; epitope) | important for binding | 
SEQ ID NO: 497: sequence comprising a region amino-terminally adjacent to epitope 21 (GFALAAPGHG; epitope) |  | binding to IgE antibodies from patients, sequence comprising a region amino-terminally adjacent to the epitope: binding to IgE antibodies from patients
SEQ ID NO: 422: sequence comprising a region amino-terminally adjacent to epitope 11 (PMKFDAKIDV; epitope) |  | binding to IgE antibodies from patients, sequence comprising a region amino-terminally adjacent to the epitope: binding to IgE antibodies from patients
SEQ ID NO: 515: sequence comprising a region carboxy-terminally adjacent to epitope 22 (GYLAKNAVSF; epitope) |  | binding to IgE antibodies from patients, sequence comprising a region carboxy-terminally adjacent to the epitope: binding to IgE antibodies from patients
SEQ ID NO: 550: sequence comprising a region amino-terminally adjacent to epitope 30 (EDTCTGACK; epitope) |  | binding to IgE antibodies from patients, sequence comprising a region amino-terminally adjacent to the epitope: binding to IgE antibodies from patients
SEQ ID NO: 577: sequence comprising a region carboxy-terminally adjacent to epitope 35 (LNPISAKVE; epitope) |  | binding to IgE antibodies from patients, sequence comprising a region carboxy-terminally adjacent to the epitope: binding to IgE antibodies from patients

Substance | region within the epitope important for binding to IgE antibodies from patients | further results
SEQ ID NO: 471: sequence comprising a region amino-terminally adjacent to epitope 20 (GEATNLKAIN; epitope) |  | binding to IgE antibodies from patients, sequence comprising a region amino-terminally adjacent to the epitope: binding to IgE antibodies from patients
SEQ ID NO: 494: region in epitope 21 (DKLYFD; epitope) | important for binding | 
SEQ ID NO: 680: region in epitope 47 (SFKPVY; epitope) | important for binding | 
SEQ ID NO: 486: region in epitope 20 (KAINIKIGS; epitope) | important for binding | 
SEQ ID NO: 357: sequence comprising a region carboxy-terminally adjacent to epitope 5 (KLDSMSYRY; epitope) |  | binding to IgE antibodies from patients, sequence comprising a region carboxy-terminally adjacent to the epitope: binding to IgE antibodies from patients
SEQ ID NO: 584: sequence comprising a region carboxy-terminally adjacent to epitope 36 (EPTLEALFG; epitope) |  | binding to IgE antibodies from patients, sequence comprising a region carboxy-terminally adjacent to the epitope: binding to IgE antibodies from patients
SEQ ID NO: 470: region in epitope 20 (EATNLKAIN; epitope) | important for binding | 
SEQ ID NO: 658: region in epitope 46 (MKMSFDSDS; epitope) | important for binding | 
SEQ ID NO: 561: region in epitope 34 (DEPLN; epitope) | important for binding | 
SEQ ID NO: 676: sequence comprising a region carboxy-terminally adjacent to epitope 47 (PIEKIQVTI; epitope) |  | binding to IgE antibodies from patients, sequence comprising a region carboxy-terminally adjacent to the epitope: binding to IgE antibodies from patients
SEQ ID NO: 483: region in epitope 20 (ATNLKAINIK; epitope) | important for binding | 
SEQ ID NO: 436: region in epitope 15 (SSSNSKSSSS; epitope) | important for binding | 
SEQ ID NO: 664: region in epitope 46 (MSFDSDS; epitope) | important for binding | 
SEQ ID NO: 642: region in epitope 41 (GQELL; epitope) | important for binding | 
SEQ ID NO: 355: region in epitope 5 (LLSPKLDS; epitope) | important for binding | 
SEQ ID NO: 619: region in epitope 39 (DRKVALTDMT; epitope) | important for binding | 
SEQ ID NO: 491: region in epitope 21 (AAPGHG; epitope) | important for binding | 
SEQ ID NO: 495: sequence comprising a region carboxy-terminally adjacent to epitope 21 (YFDGKTITIQ; epitope) |  | binding to IgE antibodies from patients, sequence comprising a region carboxy-terminally adjacent to the epitope: binding to IgE antibodies from patients
SEQ ID NO: 344: region in epitope 4 (KIAWKDPKTV; epitope) | important for binding | 
SEQ ID NO: 347: region in epitope 4 (LKKIA; epitope) | important for binding | 
SEQ ID NO: 465: sequence comprising a region carboxy-terminally adjacent to epitope 19 (VKFNYSMPAN; epitope) |  | binding to IgE antibodies from patients, sequence comprising a region carboxy-terminally adjacent to the epitope: binding to IgE antibodies from patients
SEQ ID NO: 533: region in epitope 27 (ICGKYDAE; epitope) | important for binding | 
SEQ ID NO: 523: sequence comprising a region carboxy-terminally adjacent to epitope 23 (FVKLEKTVQL; epitope) |  | binding to IgE antibodies from patients, sequence comprising a region carboxy-terminally adjacent to the epitope: binding to IgE antibodies from patients
SEQ ID NO: 487: sequence comprising a region carboxy-terminally adjacent to epitope 20 (NIKIGSHEI; epitope) |  | binding to IgE antibodies from patients, sequence comprising a region carboxy-terminally adjacent to the epitope: binding to IgE antibodies from patients

— US20230190924A1, “ANTIGEN OF ALLERGY AND EPITOPE THEREOF” (HOYU CO., LTD., priority 2017, published 2023)
